Assays:
[1] = tested on: Hedgehog signaling pathway; test: Luciferase activity assay in Shh-LIGHT2 cells (Gli1-controlled Firefly / constitutive Renilla); format: cell-based; conditions: for Firefly/Renilla luciferase expression (Hedgehog activation): absence of SAG, 24 hours (FIG. 11A); for SAG-induced HH activity (Firefly/Renilla luciferase): presence of SAG at 50 nM, 24 hours (FIG. 11B)
Method: Following lysis, luminescence was measured using the Dual Luciferase assay kit (Promega) followed by Firefly/Renilla luciferase ratio calculation for each treatment. Shown is average Firefly/Renilla luciferase activity ±SD of 3 independent experiments. *p<0.04. […] RNA was extracted from brains of P18 and P21 Mut and WT mice. cDNA was prepared by reverse transcription and subjected to qPCR using primers specific to Gli1 and GAPDH (SEQ ID NOs: 1-2 and 3-4, respectively). Relative quantity (RQ) was calculated by the ΔΔCt method. * p<0.02 [vs control (FIG. 11A) or vs SAG treated cells (FIG. 11B)].
Shh-LIGHT2 cells were seeded at a density of 10,000 cells per well in a 96-wells plate in growing medium. 24 hours post-plating the cells were incubated for additional 24 hours with the tested compounds in low serum media (0.5%) without G418 and Zeocin. Following lysis, Firefly and Renilla luminescence was measured using the Dual Luciferase assay kit (Promega) and a Veritas microplate luminometer (Turner Biosystems).
To test if p8C10 (H5), p8G7 (H9) and p9E6 (H15) compounds that were identified in the screen indeed affect Hedgehog signaling, SHH-lightII cells which stably express an inducible Firefly-Luciferase reporter gene under the control of Gli1 (a read-out of Hedgehog activation) and constitutive Renilla-Luciferase for normalization purposes (Taipale et al. 2000) were used. […] Therefore, p9E6 was identified as an agonist. SHH activation is required for the first steps of oligodendrocyte differentiation, while a subsequent decrease in Hedgehog activity is needed for complete differentiation and myelin production (Bouslama-Oueghlani et al. 2012) and re-myelination (Samanta et al. 2015).

[2] = tested on: Mut MEFs; test: JC1 staining of intact and damaged mitochondria (mitochondrial membrane potential); format: cell-based, mouse; conditions: Mut MEFs
Method: Mut MEFs were treated or not for 6 hours with the indicated concentrations of p8G5 (blue), pre084 (purple), or NE-100 (yellow), washed and stained with Hoechst and JC1 for 30 minutes followed by image acquisition using In-Cell-Analyzer-2000. Shown is the % of red/green JC1 integrated intensity per cell relative to that in untreated WT cells of 2-4 independent experiments.
Following, the cells were washed, stained with Hoechst and JC-1 fluorescent dyes for 30 minutes, and subjected to image acquisition using In-Cell-Analyzer-2000. Shown is cellular content of damaged mitochondria (JC1 green channel, red bars), intact mitochondria (JC1 red channel, green bars) and damaged to intact mitochondria ratio (blue bars). Values of control (vehicle treated) cells was set to 100%.
Mut MEFs were treated with the indicated compounds at 10 μM for 24 hours followed by staining with fluorogenic dyes and image-based single-cell analysis. Shown is average effect on ROS level from at least 3-independent experiments ±SEM. […] Mut MEFs were incubated or not for 24 hours with 10 μM of the indicated compound, washed and stained with Crystal Violet. […] Mut MEFs were incubated or not for 24 hours with 10 μM of the indicated compound, washed and stained with JC1 and Hoechst followed by image-based single-cell analysis. Values of untreated cells were set as 100%. Shown is average of at least 3 independent experiments for each parameter compared to its matching control ±SEM. * p<0.05. Putative targets are indicated.
Mut MEFs were incubated or not for 24 hours with 10 μM of the indicated compounds, washed and stained with Hoechst and JC1 followed by image-based single-cell analysis. […] Mut MEFs were incubated or not with the indicated concentrations of the indicated compounds for 2 hours followed by addition of 50 ng/ml Tunicamycin (Tun) for additional 22 hours, stained with Crystal Violet followed by measurement of absorbance at 570 nm.
MEFs were seeded on 1% gelatin-coated 96-wells plate at a density of 5000 cells per well. 24 hours post-plating the cells were incubated with the tested compounds for additional 24 hours. Several DMSO-treated cells (control) were included in each plate at different locations. Following, the cells were stained by addition of fluorogenic dyes for further 30 minutes incubation at 37° C. […] CellROX was used together with Hoechst and CFSE; JC1 was used together with Hoechst. Cells were washed with Hank's balanced salt solution (HBSS) which was used for images acquisition using IN Cell Analyzer 2000 (GE Healthcare, Pitsburgh, Pa., USA). IN Cell Developer Toolbox 1.9.1 software (GE Healthcare) was used for analysis which included cells segmentation using Hoechst and/or CFSE signals. For analysis of JC1 staining, integrated intensity of green and red emissions were used for detection of damaged and intact mitochondria, respectively.

[3] = tested on: Mut MEFs; test: Cell survival assay, Crystal violet staining, Mut MEFs; format: cell-based, mouse; conditions: for Survival (%) ± SEM Mut MEFs: 24 hours, untreated cells set to 100%
Method: (§1) Cells were seeded on 96-wells plate at a density of 5000 cells per well. Astrocytes were seeded following coating with 0.001% PDL.

[4] = tested on: Mut MEFs; test: TMRE staining, flow cytometry; format: cell-based, mouse
Method: Mut MEFs were treated or untreated with the indicated concentrations of the indicated Sig-1R binders for 6 hours, stained by TMRE for 30 minutes and analyzed by flow cytometry. Shown are flow cytometry histograms and bar graphs representing % mean TMRE fluorescence intensity relative to non-treated WT cells of a representative experiment.
MEFs were seeded at a density of 4×10^4 cells per well in a 24-wells plate. 24 hours post-plating the cells were incubated with the tested compounds for additional 6 hours followed by staining with 200 nM Tetra-Methyl-Rhodamine-Ethyl esterperchlorate (TMRE) (Abcam) for 30 minutes at 37° C. Cells were removed by trypsinyzation, washed and resuspended in PBS. 5-10×10^3 cells were analyzed by Stratedigm S1000EXi cell sorter and FlowJo software (FLOWJO, LLC, Ashland, Oreg., USA).

[5] = tested on: Mut astrocytes; test: Cell survival assay, Crystal violet staining, Mut astrocytes; format: cell-based, mouse; conditions: 24 hours, untreated cells set to 100%
Method: as §1

[6] = tested on: Mut MEFs; test: mtDNA quantification (qPCR of mitochondrial 12S rRNA and nuclear 18S rRNA genes), MEFs; format: cell-based, mouse
Method: DNA extracted from WT and Mut MEFs that were treated or not for 6 hours with 0.1 μM, 1 μM or 10 μM of p8G5 (blue), Pre084 (known SIG-1R agonist, purple), pridopidine (known SIG-1R agonists, green) or NE-100 (known SIG-1R antagonist, yellow) was subjected to qPCR analysis of mitochondrial 12S rRNA and nuclear 18S rRNA genes.

[7] = tested on: WT astrocytes; test: Cell survival assay, Crystal violet staining, WT astrocytes; format: cell-based, mouse; conditions: 24 hours, untreated cells set to 100%
Method: as §1

[8] = tested on: Mut MEFs; test: Oxygen consumption (Seahorse XF Cell Mito Stress Test), MEFs; format: cell-based, mouse; conditions: for basal respiration and ATP-linked respiration per cell (OCR): 6 hours, normalized to biomass (FIGS. 7A-B)
Method: Mut MEFs were treated or not for 6 hours with the indicated concentrations of the indicated Sig-1R binders. Oxygen consumption was measured in a XF96 Extracellular Flux Analyzer using the Seahorse XF Cell Mito Stress Test Kit. The Basal respiration (FIG. 7A) and ATP-linked respiration (FIG. 7B) data were normalized to biomass as determined by Crystal Violet staining.
Mut MEFs were treated or not for 6 hours with the indicated concentrations of the indicated Sig-1R binders. Oxygen consumption was measured in a XF96 Extracellular Flux Analyzer using the Seahorse XF Cell Mito Stress Test Kit. The Basal respiration (FIG. 8A), ATP-linked respiration (FIG. 8B) and maximal respiration (FIG. 8C) data was normalized to mtDNA content as detailed in FIG. 2.
(§2) The data were normalized to cell number, obtained by Crystal Violet staining, or to mtDNA content.

[9] = tested on: Mut MEFs; test: Survival under Tunicamycin-induced ER stress, Crystal Violet, MEFs; conditions: 30 μM, 24 hours, Tunicamycin during the last 22 hours (FIGS. 9 and 18)
Method: Mut MEFs were treated or not for 24 hours with the indicated concentrations of the indicated Sig-1R binders in the presence of 0.1 μg/ml Tunicamycin (Tun) during the last 22 hours. Following, the cells were washed, fixated and stained with Crystal Violet (CV) followed by measurement of absorbance at 570 nm. Shown is average % of CV staining relative to cells not treated with tunicamycin nor Sig-1R binder ±SEM of 3 independent experiments. *p<0.03.
Following, the cells were washed, fixated and stained with Crystal Violet and absorbance at 570 nm was measured. Data is presented relative to cells of the corresponding genotype not treated with p8G5 nor Tunicamycin. Shown is average % of CV staining ±SEM of 3 independent experiments.
Mut MEFs were treated or not for 24 hours with 10, 20 or 30 μM of the indicated Sig-1R binders in the presence of 50 ng/ml Tunicamycin (Tun) during the last 22 hours. Following, the cells were washed, fixated and stained with Crystal Violet (CV) followed by measurement of absorbance at 570 nm. Shown is % of CV staining relative to cells not treated with tunicamycin nor Sig-1R binder ±SEM of 3 independent experiments, *p<0.05.
Mut MEFs were incubated or not with the indicated concentrations of the indicated compounds for 2 hours followed by addition of 50 ng/ml Tunicamycin (Tun) for additional 22 hours, stained with Crystal Violet followed by measurement of absorbance at 570 nm. Shown is average normalized to Tun-treated cells without any compound ±SEM of 3 independent experiments. * not significant; ** p<0.02; *** all values p<0.04.

[10] = tested on: Mut primary astrocytes; test: mtDNA quantification, primary astrocytes; format: cell-based, mouse; conditions: 1 or 10 μm, 6 hours (FIG. 17A)
Method: (§3) Shown is average relative quantity (RQ) of 2-6 independent experiments normalized to their untreated controls ±SEM. […] Values of ATP-linked respiration (FIG. 17B) and maximal respiration (FIG. 17C) were analyzed and normalized to cell number.

[11] = tested on: Mut primary astrocytes; test: Oxygen consumption (OCR), primary astrocytes; format: cell-based, mouse; conditions: 1 or 10 μm, 6 hours, normalized to cell number (FIGS. 17B-C)
Method: as §3, §2

Row | SMILES | Firefly/Renilla luciferase expression (Hedgehog activation) [1] | SAG-induced HH activity (Firefly/Renilla luciferase) [1] | Survival (%) ± SEM Mut MEFs ([3]; 0.1 μM) [%] | Survival (%) ± SEM Mut MEFs ([3]; 1 μM) [%] | Survival (%) ± SEM Mut MEFs ([3]; 10 μM) [%] | Survival (%) ± SEM Mut astrocytes ([5]; 1 μM) [%] | Survival (%) ± SEM Mut astrocytes ([5]; 10 μM) [%] | Survival (%) ± SEM Mut astrocytes ([5]; 30 μM) [%] | Survival (%) ± SEM WT astrocytes ([7]; 1 μM) [%] | Survival (%) ± SEM WT astrocytes ([7]; 10 μM) [%] | basal respiration and ATP-linked respiration per cell (OCR) [8] | also measured
1 | C=CCn1c(-c2cc(OC)c(OC)c(OC)c2)nc2ccccc21 [Hit H5, 1-allyl-2-(3,4,5-trimethoxyphenyl)-1H-benzimidazole] | not able to activate the pathway | inhibited the SAG-induced HH activity |  |  |  |  |  |  |  |  |  | 
2 | O=C(Cc1ccccc1)N1CCN(c2ccccc2F)CC1 [Hit H9, 1-(2-fluorophenyl)-4-(phenylacetyl)piperazine] | not able to activate the pathway | inhibited the SAG-induced HH activity |  |  |  |  |  |  |  |  |  | 
3 | C=CCn1c(C=Cc2ccccc2)nc2ccccc21 [Hit H15, 1-allyl-2-(2-phenylvinyl)-1H-benzimidazole] | able to activate the Hedgehog signaling pathway |  |  |  |  |  |  |  |  |  |  | effect on mitochondrial health (JC1, intact and damaged mitochondria) ([2]; 10 μM, 24 hours (FIG. 14C)): significant beneficial effect on mitochondrial health
4 | CCCN(CCC)CCc1ccc(OC)c(OCCc2ccccc2)c1 [NE100] |  |  | 99 ± 2.1 | 98 ± 2.2 | 88 ± 3.5 | 94 ± 4.7 | 82 ± 4.3 | 65 ± 2.2 | 86 ± 1.1 | 79 ± 2.2 | negative effect | TMRE staining (mitochondrial membrane potential) ([4]; all concentrations, 6 hours (FIG. 5A)): negative effect on TMRE staining; mitochondrial content in Mut MEFs ([6]; 0.1 μM, 1 μM or 10 μM, 6 hours (FIG. 2)): increased mitochondrial content in a dose dependent manner; Survival (%) ± SEM WT astrocytes ([7]; 0.1 μM): 98 ± 1.8%
5 | O=C(OCCN1CCOCC1)C1(c2ccccc2)CCCCC1 [pre084, 2-morpholin-4-ylethyl 1-phenylcyclohexane-1-carboxylate] |  |  | 100 ± 2.1 | 101 ± 3.5 | 99 ± 1.5 | 97 ± 0.5 | 93 ± 5.1 | 76 ± 4.9 | 114 ± 7.9 | 95 ± 2.3 | no effect | Survival (%) ± SEM Mut MEFs ([3]; 20 μM): 97 ± 2.1%; Survival (%) ± SEM Mut MEFs ([3]; 30 μM): 105 ± 1.9%; Survival (%) ± SEM Mut MEFs ([3]; 50 μM): 80 ± 2.8%; Survival (%) ± SEM Mut MEFs ([3]; 100 μM): 57 ± 2.2%; effect on survival of Mut cells ([3]; as high as 30 μM (FIG. 4, Table 3)): did not have any negative effect on the survival; TMRE staining (mitochondrial membrane potential) ([4]; 1 μM, 6 hours (FIGS. 5A-B)): increased TMRE staining to a level above that of untreated WT cells; survival of Mut MEFs under Tunicamycin ER-stress [9]: able to rescue mutant MEFs; mitochondrial content per cell in astrocytes [10]: no effect on mitochondrial content per cell; red/green JC1 signal (mitochondria with high to low membrane potential) ([2]; 1 μM and 10 μM, 6 hours (FIG. 6)): increased the ratio between the content of mitochondria with high to low membrane potential; ATP-linked and maximal respiration in mutant astrocytes [11]: increased both ATP-linked and maximal respiration; mitochondrial content in Mut MEFs ([6]; 0.1 μM-1 μM, 6 hours incubation (FIG. 2)): lowered the abnormal high mitochondrial content; Survival (%) ± SEM WT astrocytes ([7]; 30 μM): 82 ± 1.9%; maximal respiration rate per mitochondrial content ([8]; 1 μM, 6 hours (FIG. 8C)): increased the maximal respiration capacity per mitochondria to the level of untreated WT cells; basal and ATP-linked respiration rate per mitochondrial DNA content ([8]; 6 hours (FIGS. 8A-B)): statistically significant increase

Reference: patent US20200061076A1, “METHODS OF TREATING LEUKODYSTROPHIES” (Ramot at Tel-Aviv University Ltd., priority 2017, published 2020)
